Measured values reported in patent US8575185B2, “Compositions, synthesis, and methods of utilizing quinazolinedione derivatives” (Reviva Pharmaceuticals, Inc., priority 2009, dated 2013).
Counter-ions that a name gives are not always drawn.

How the values were obtained:
[1] = molecular target: T1, dopamine-D2 short (D2S) receptor (Homo sapiens, UniProt P14416); test: Dopamine, D2s (Human Recombinant) Binding Assay; settings: human recombinant in CHO cells, [3H]Spiperone
T1 construct: expressed in transfected cells; host or cells: CHO cells
Experimental: Dopamine, D2s (Human Recombinant) Binding Assay
Receptor Source Human recombinant expressed in CHO cells
Radioligand: [^3H]Spiperone (20-60 Ci/mmol)
Control Compound Haloperidol
Incubation Conditions The reactions were carried out in 50 mM TRIS-HCl (pH 7.4) containing 120 mM NaCl, 5 mM KCl, 5 mM MgCl2, 1 mM EDTA for 60 minutes at 25 C. The reaction was terminated by rapid vacuum filtration onto glass fiber filters. Radioactivity trapped onto the filters was determined and compared to control values in order to ascertain any interactions of test compounds with the cloned dopamine-D2 short binding site (Literature Reference: Jarvis, K. R. et al. Journal of Receptor Research 1993, 13(1-4), 573-590; Gundlach, A. L. et al. Life Sciences 1984, 35, 1981-1988.)
(§1) The radioligand binding assays for dopamine-D2S, serotonin-5HT1A and serotonin-5HT2A were carried out at six different concentrations and the test concentrations were 0.5 nM, 1 nM, 10 nm, 100 nM, 300 nM and 1000 nM.

[2] = molecular target: T2, serotonin 5-HT1A receptor (Homo sapiens, UniProt P08908); test: Serotonin, 5HT1A (Human Recombinant) Binding Assay; settings: human recombinant in HEK-293 cells, [3H]-8-OH-DPAT
T2 construct: expressed in transfected cells; host or cells: HEK-293 cells
T2 sequence (P08908 1-422): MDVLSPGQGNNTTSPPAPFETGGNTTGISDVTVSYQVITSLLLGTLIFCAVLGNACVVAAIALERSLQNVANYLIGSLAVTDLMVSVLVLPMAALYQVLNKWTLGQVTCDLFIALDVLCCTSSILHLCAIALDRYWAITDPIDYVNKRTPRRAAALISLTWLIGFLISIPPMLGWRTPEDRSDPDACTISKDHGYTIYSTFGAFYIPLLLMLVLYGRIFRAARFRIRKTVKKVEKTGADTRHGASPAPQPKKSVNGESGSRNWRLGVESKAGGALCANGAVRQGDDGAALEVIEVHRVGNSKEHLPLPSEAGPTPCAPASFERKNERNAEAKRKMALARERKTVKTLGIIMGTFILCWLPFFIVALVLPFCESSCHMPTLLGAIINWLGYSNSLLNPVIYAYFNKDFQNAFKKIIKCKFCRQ
Experimental: Serotonin, 5HT1A (Human Recombinant) Binding Assay
Receptor Source Human recombinant expressed in HEK-293 cells
Radioligand: [^3H]-8-OH-DPAT (221 Ci/mmol)
Control Compound: 8-OH-DPAT
Incubation Conditions The reactions were carried out in 50 mM TRIS-HCl (pH 7.4) containing 10 mM MgSO4, 0.5 mM EDTA and 0.1% Ascorbic acid at room temperature for 1 hour. The reaction was terminated by rapid vacuum filtration onto glass fiber filters. Radioactivity trapped onto the filters was determined and compared to control values in order to ascertain any interactions of test compounds with the cloned serotonin-5HT1A binding site (Literature Reference: Hoyer, D. et al. Eur. Journal Pharmacol. 1985, 118, 13-23; Schoeffter, P. and Hoyer, D. Naunyn-Schmiedeberg's Arch. Pharmac. 1989, 340, 135-138)
as §1

[3] = molecular target: T3, serotonin 5-HT2A receptor (Homo sapiens, UniProt P28223); test: Serotonin, 5HT2a (Human) Binding Assay; settings: human cortex, [3H]-Ketanserin
T3 construct: Receptor Source Human Cortex; from tissue; host or cells: human cortex
Experimental: Serotonin, 5HT2a (Human) Binding Assay
Receptor Source Human Cortex
Radioligand: [^3H]-Ketanserin (60-90 Ci/mmol)
Control Compound Ketanserin
Incubation Conditions: The reactions were carried out in 50 mM TRIS-HCl (pH 7.6) at room temperature for 90 minutes. The reaction was terminated by rapid vacuum filtration onto glass fiber filters. Radioactivity trapped onto the filters was determined and compared to control values in order to ascertain any interactions of test compounds with the serotonin-5HT2A binding site (Literature Reference: Leysen, J. E. et al. Mol. Pharmacol. 1982, 21, 301-314; Martin, G. R. and Humphrey, P. P. A. Neuropharmacol. 1994, 33(3/4), 261-273.)
as §1

T1 sequence (P14416 1-414 isoform P14416-2): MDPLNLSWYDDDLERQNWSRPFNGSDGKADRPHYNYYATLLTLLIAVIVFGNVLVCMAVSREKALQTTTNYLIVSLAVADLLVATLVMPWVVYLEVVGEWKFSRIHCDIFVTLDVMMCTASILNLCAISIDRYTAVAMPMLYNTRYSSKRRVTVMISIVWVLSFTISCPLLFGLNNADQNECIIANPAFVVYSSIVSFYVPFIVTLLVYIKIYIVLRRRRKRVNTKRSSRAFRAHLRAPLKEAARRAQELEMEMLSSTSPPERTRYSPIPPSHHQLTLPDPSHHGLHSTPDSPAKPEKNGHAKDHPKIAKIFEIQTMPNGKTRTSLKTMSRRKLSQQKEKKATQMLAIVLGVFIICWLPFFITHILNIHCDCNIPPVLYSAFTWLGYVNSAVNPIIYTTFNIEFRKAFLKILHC
T3 sequence (P28223 whole entry): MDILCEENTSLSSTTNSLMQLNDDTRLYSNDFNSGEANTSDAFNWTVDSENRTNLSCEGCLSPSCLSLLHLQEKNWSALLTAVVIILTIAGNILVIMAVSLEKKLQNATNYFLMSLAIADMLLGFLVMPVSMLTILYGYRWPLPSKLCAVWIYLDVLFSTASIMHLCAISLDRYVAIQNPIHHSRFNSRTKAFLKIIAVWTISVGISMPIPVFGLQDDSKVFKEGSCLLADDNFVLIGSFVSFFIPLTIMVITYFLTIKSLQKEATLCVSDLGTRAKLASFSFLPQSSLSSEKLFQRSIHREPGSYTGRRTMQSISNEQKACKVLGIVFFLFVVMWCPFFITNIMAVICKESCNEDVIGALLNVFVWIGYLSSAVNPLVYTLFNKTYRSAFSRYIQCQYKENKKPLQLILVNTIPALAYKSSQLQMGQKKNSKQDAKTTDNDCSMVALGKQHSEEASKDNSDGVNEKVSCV

Structure (SMILES)	IC50 [1] [nM]	Ki [1] [nM]	IC50 [2] [nM]	Ki [2] [nM]	IC50 [3] [nM]	Ki [3] [nM]
O=c1[nH]c2ccccc2c(=O)n1CCCCN1CCN(c2cccc(Cl)c2Cl)CC1 [Compound 17b, 3-(4-(4-(2,3-Dichlorophenyl)piperazin-1-yl)butyl)quinazoline-2,4(1H, 3H)-dione hydrochloride]	6.35	1.87	0.95	0.58	82.6	40.5
O=c1[nH]c(=O)c2ccc(OCCCCN3CCN(c4cccc(Cl)c4Cl)CC3)cc2[nH]1 [Compound 10b, 7-(4-(4-(2,3-Dichlorophenyl)piperazin-1-yl)butoxy)quinazoline-2,4(1H, 3H)-dione hydrochloride]	1.35	0.43	1.63	0.99	38.3	20.4
COc1ccccc1N1CCN(CCCCOc2ccc3c(=O)[nH]c(=O)[nH]c3c2)CC1 [Compound 10a, 7-(4-(4-(2-Methoxyphenyl)piperazin-1-yl)butoxy)quinazoline-2,4(1H, 3H)-dione hydrochloride]	2.5	0.74	1.09	0.66	268	131
